Measured values published in patent US20100267712A1, “ISOINDOLINE COMPOUNDS FOR THE TREATMENT OF SPINAL MUSCULAR ATROPHY AND OTHER USES” (The United States of America, as represented by the …, priority 2007, published 2010).

Test system: SMN2-linked luciferase-reporter gene construct
Assay: SMN Splice Reporter Assay (SMN2-linked luciferase reporter)
Format: cell-based
Settings: for EC50: cervical carcinoma cell lines, SMN2 splice luciferase reporter; for Fold Increase: fold-increase of luciferase over baseline reading of transformed cells without any test compound
Excerpt: As previously discussed, SMN1 is the gene deleted in SMA patients; the SMN2 gene remains intact in both SMA and normal patients. Therefore, SMN2 provides a potential means of increasing SMN production in SMA patients and is, thus, a target for developing SMA treatments. SMN2 is identical to SMN1 with the exception of a single base pair change that results in reduced expression of the gene. The reduction is based on the creation of an alternatively spliced RNA that produces an unstable protein carrying a deletion of exon 7. Both full length SMN and exon 7 deleted SMN are produced by the SMN2 gene via alternative RNA splicing, but the major product is the unstable deleted form.
Cervical carcinoma cell lines were transformed with a SMN2-linked luciferase-reporter gene construct. The reporter is designed to detect shifts in the alternative splicing of SMN2 sequences. In particular, the reporter is constructed as a fusion of the alternatively spliced sequences of the SMN2 gene and the luciferase gene. Luciferase sequences are in the correct translational reading frame only when the SMN2 sequences are spliced according to the normal SMN1 mechanism (e.g., splicing to include exon 7), which allows for translation of the stable SMN protein. Compounds were tested in the assay by administering the compound to the cell line and detecting an increase in the luciferase activity. The assay is described in greater detail in Zhang et al., Gene Ther., 8: 1532-8 (2001). Compounds were administered as described in Lunn et al, Chem. & Biol, 11: 1489-1493 (2004).
The results are reported as a fold-increase over a baseline reading of transformed cells without any test compound. The EC50 value also is reported in Table 1 for some exemplary compounds of the invention.

Structure (SMILES) | EC50 [µM] | Fold Increase
COc1ccc2c(c1)C(=O)N(c1ccc3c(c1)NCCN3)C2 [Example 121921] | 0.217 | 1.365
CC(C)Oc1ccc2c(c1)C(=O)N(c1ccc3c(ccn3C)c1)C2 [Example 121923] | – | 1.194
Nc1ccc2c(c1)C(=O)N(c1ccc3ccsc3c1)C2 [Example 122036] | 0.347 | 1.827
Cn1ccc2cc(N3Cc4ccc(C(F)(F)F)cc4C3=O)ccc21 [Example 122037] | 0.862 | 1.406
CN(C)c1ccc2c(c1)C(=O)N(c1ccc3ccsc3c1)C2 [Example 122038] | 0.038 | 1.592
COc1ccc(-c2ccc3c(c2)C(=O)N(c2ccc4c(ccn4C)c2)C3)cc1 [Example 122040] | – | 1.148
Cn1ccc2cc(N3Cc4ccc(-c5cccnc5)cc4C3=O)ccc21 [Example 122042] | 0.728 | 1.422
Cn1ccc2cc(N3Cc4ccc(-c5cncnc5)cc4C3=O)ccc21 [Example 122181] | – | 1.169
COc1ccc2c(c1)C(=O)N(c1ccc3c(c1)CCN3C)C2 [Example 122314] | – | 1.026
COc1ccc(-c2ccc3c(c2)C(=O)N(c2ccc4ccn(C)c4c2)C3)cc1 [Example 122315] | – | 1.091
Cn1ccc2cc(N3Cc4cc(F)ccc4C3=O)ccc21 [Example 122316] | 0.065 | 1.401
Cn1ccc2ccc(N3Cc4ccc(-c5cccnc5)cc4C3=O)cc21 [Example 122318] | 0.459 | 1.94
CN1CCCc2cc(N3Cc4ccc(OC(F)F)cc4C3=O)ccc21 [Example 122319] | 0.203 | 1.97
O=C1c2cc(O)ccc2CN1c1ccc2sccc2c1 [Example 122430] | 0.086 | 1.769
Cn1ccc2ccc(N3Cc4ccc(-c5cncnc5)cc4C3=O)cc21 [Example 122433] | 1.07 | 1.333
COc1ccc2c(c1)C(=O)N(c1ccc3scc(Br)c3c1)C2 [Example 122434] | 0.378 | 1.718
COc1ccc2c(c1)C(=O)N(c1ccc3c(c1)N(C)CCN3C)C2 [Example 122436] | 5.95 | 1.354

Structure (SMILES) | EC50 [µM] | Fold Increase
CCCOc1ccc2c(c1)C(=O)N(c1ccc3sccc3c1)C2 [Example 122551] | – | 1.235
CCCCOc1ccc2c(c1)C(=O)N(c1ccc3sccc3c1)C2 [Example 122552] | – | 1.202
CC(C)Oc1ccc2c(c1)C(=O)N(c1ccc3sccc3c1)C2 [Example 122553] | – | 1.082
CCOc1ccc2c(c1)C(=O)N(c1ccc3sccc3c1)C2 [Example 122554] | 0.027 | 1.475
Cc1ccc2c(c1)C(=O)N(c1ccc3ccsc3c1)C2 [Example 122555] | 0.087 | 1.509
O=C1c2cc(O)ccc2CN1c1ccc2ccsc2c1 [Example 122556] | 0.139 | 1.671
O=C1c2cc(Br)ccc2CN1c1ccc2ccsc2c1 [Example 122557] | – | 1.383
O=C1c2cc(Br)ccc2CN1c1ccc2sccc2c1 [Example 122558] | 0.094 | 1.469
CCc1ccc2c(c1)C(=O)N(c1ccc3ccsc3c1)C2 [Example 122683] | 0.125 | 1.582
CCc1ccc2c(c1)C(=O)N(c1ccc3sccc3c1)C2 [Example 122684] | 0.057 | 1.665
CCCc1ccc2c(c1)C(=O)N(c1ccc3sccc3c1)C2 [Example 122819] | 0.035 | 1.547
COc1ccc2c(c1)C(=O)N(c1ccc3nccc(N(C)C)c3c1)C2 [Example 122820] | – | 1.066
Cc1cc2cc(N3Cc4ccc(O)cc4C3=O)ccc2n1C [Example 123010] | 0.302 | 1.336
CCCc1ccc2c(c1)C(=O)N(c1ccc3c(c1)cc(C)n3C)C2 [Example 123014] | 0.323 | 1.407
Cc1ccc2c(c1)C(=O)N(c1ccc3c(c1)cc(C)n3C)C2 [Example 123015] | 0.053 | 1.43
CCc1ccc2c(c1)C(=O)N(c1ccc3c(c1)cc(C)n3C)C2 [Example 123016] | 0.197 | 1.481

Second part, led by results:

EC50 [µM] | Structure (SMILES) | Fold Increase
0.101 | COc1ccc2c(c1)C(=O)N(c1cc3ccn(C)c3cn1)C2 [Example 121792] | 1.384
0.085 | CCc1ccc2c(c1)C(=O)N(c1ccc3c(ccn3C)c1)C2 [Example 121793] | 1.529
0.225 | CCCCOc1ccc2c(c1)C(=O)N(c1ccc3c(ccn3C)c1)C2 [Example 121922] | 1.301
0.193 | Cn1ccc2cc(N3Cc4ccc(F)cc4C3=O)ccc21 [Example 121925] | 1.347
0.199 | COc1cc2c(cc1F)CN(c1ccc3c(ccn3C)c1)C2=O [Example 121926] | 1.533
0.036 | CC(C)Cc1ccc2c(c1)C(=O)N(c1ccc3c(ccn3C)c1)C2 [Example 121927] | 1.323
0.148 | CCCCc1ccc2c(c1)C(=O)N(c1ccc3c(ccn3C)c1)C2 [Example 121928] | 1.384
0.083 | Cn1ccc2cc(N3Cc4ccc(OC5CCCC5)cc4C3=O)ccc21 [Example 121929] | 1.316
7.12 | COc1ccc2c(c1)C(=O)N(c1ccc3nc(N(C)C)ncc3c1)C2 [Example 122039] | 1.459
0.076 | C/C=C(/C)c1ccc2c(c1)C(=O)N(c1ccc3c(ccn3C)c1)C2 [Example 122041] | 1.606
0.54 | Cn1ccc2cc(N3Cc4ccc(OCC(F)(F)F)cc4C3=O)ccc21 [Example 122043] | 1.341
0.16 | COc1ccc2c(c1)C(=O)N(c1ccc3c(c1)c(Br)cn3C)C2 [Example 122044] | 1.383
0.092 | Cn1ccc2cc(N3Cc4ccc(OC(F)(F)C(F)Cl)cc4C3=O)ccc21 (stereo not drawn) [Example 122180] | 1.64
0.593 | COc1ccc2c(c1)CN(c1ccc3c(ccn3C)c1)C2 [Example 122183] | 1.518
0.409 | COc1ccc2c(c1)C(=O)N(c1ccc3c(c1)c(C)cn3C)C2 [Example 122184] | 1.639
0.22 | Cn1ccc2cc(N3Cc4ccc(OC(F)(F)Br)cc4C3=O)ccc21 [Example 122431] | 1.552
1.14 | COc1ccc2c(c1)C(=O)N(c1ccc3nc(OC)ncc3c1)C2 [Example 122432] | 1.32
0.037 | COc1ccc2c(c1)C(=O)N(c1ccc3cccnc3c1)C2 [Example 122821] | 1.401
0.272 | COc1ccc2c(c1)C(=O)N(c1ccc3scc(C)c3c1)C2 [Example 123012] | 1.773
0.902 | COc1ccc2c(c1)C(=O)N(c1ccc3nccc(Cl)c3c1)C2 [Example 123013] | 1.413
